In ChEMBL document CHEMBL4396865, “Current advances of triazole alcohols derived from fluconazole: Design, in vitro and in silico studies” (2019):
Values after ≈ are worked out from the molar mass of the structure shown.

Key:
Type in all cases: functional
Candida albicans = assay: Antifungal activity against Candida albicans after 24 hrs by NCCLS protocol based method
Candida tropicalis = assay: Antifungal activity against Candida tropicalis after 24 hrs by NCCLS protocol based method
Cryptococcus neoformans = assay: Antifungal activity against Cryptococcus neoformans after 72 hrs by NCCLS protocol based method
Trichophyton rubrum = assay: Antifungal activity against Trichophyton rubrum after 7 days by NCCLS protocol based method; details: 168 h
Candida parapsilosis = assay: Antifungal activity against Candida parapsilosis after 24 hrs by NCCLS protocol based method; details: Lodderomyces parapsilosis
Fonsecaea compacta = assay: Antifungal activity against Fonsecaea compacta after 24 hrs by NCCLS protocol based method
Nannizzia gypsea = assay: Antifungal activity against Microsporum gypseum after 7 days by NCCLS protocol based method; details: 168 h

Row | SMILES | MIC80 (Candida albicans) [ng/mL] | MIC80 (Candida tropicalis) [ng/mL] | MIC80 (Cryptococcus neoformans) [ng/mL] | MIC80 (Trichophyton rubrum) [ng/mL] | MIC80 (Candida parapsilosis) [ng/mL] | MIC80 (Fonsecaea compacta) [ng/mL] | MIC (Candida albicans) [ng/mL] | MIC (Candida tropicalis) [ng/mL] | MIC (Cryptococcus neoformans) [ng/mL] | MIC (Trichophyton rubrum) [ng/mL] | MIC (Nannizzia gypsea) [ng/mL]
1 | CN(CCCOc1ccc(F)cc1)CC(O)(Cn1cncn1)c1ccc(F)cc1F (configuration not stated) | – | – | – | – | – | – | 1 to 16 (≈ 2.38 to 38.1 nM) | 1 to 16 (≈ 2.38 to 38.1 nM) | 1 to 16 (≈ 2.38 to 38.1 nM) | 1 to 16 (≈ 2.38 to 38.1 nM) | 1 to 16 (≈ 2.38 to 38.1 nM)
2 | O=C(OC1CCN(CC(O)(Cn2cncn2)c2ccc(F)cc2F)CC1)c1ccccc1Br (configuration not stated) | 3.9 to 62.5 (≈ 7.48 to 120 nM) | 3.9 to 62.5 (≈ 7.48 to 120 nM) | 3.9 to 62.5 (≈ 7.48 to 120 nM) | 3.9 to 62.5 (≈ 7.48 to 120 nM) | 3.9 to 62.5 (≈ 7.48 to 120 nM) | 3.9 to 62.5 (≈ 7.48 to 120 nM) | – | – | – | – | –
3 | Cc1ccccc1C(=O)OC1CCN(CC(O)(Cn2cncn2)c2ccc(F)cc2F)CC1 (configuration not stated) | 3.9 to 62.5 (≈ 8.54 to 137 nM) | 3.9 to 62.5 (≈ 8.54 to 137 nM) | 3.9 to 62.5 (≈ 8.54 to 137 nM) | 3.9 to 62.5 (≈ 8.54 to 137 nM) | 3.9 to 62.5 (≈ 8.54 to 137 nM) | 3.9 to 62.5 (≈ 8.54 to 137 nM) | – | – | – | – | –
4 | CN(CCCOc1ccccc1Cl)CC(O)(Cn1cncn1)c1ccc(F)cc1F (configuration not stated) | – | – | – | – | – | – | 1 to 16 (≈ 2.29 to 36.6 nM) | 1 to 16 (≈ 2.29 to 36.6 nM) | 1 to 16 (≈ 2.29 to 36.6 nM) | 1 to 16 (≈ 2.29 to 36.6 nM) | 1 to 16 (≈ 2.29 to 36.6 nM)
5 | O=C(OC1CCN(CC(O)(Cn2cncn2)c2ccc(F)cc2F)CC1)c1ccccc1F (configuration not stated) | 3.9 to 62.5 (≈ 8.47 to 136 nM) | 3.9 to 62.5 (≈ 8.47 to 136 nM) | 3.9 to 62.5 (≈ 8.47 to 136 nM) | 3.9 to 62.5 (≈ 8.47 to 136 nM) | 3.9 to 62.5 (≈ 8.47 to 136 nM) | 3.9 to 62.5 (≈ 8.47 to 136 nM) | – | – | – | – | –
6 | Cc1ccc(OCCCN(C)CC(O)(Cn2cncn2)c2ccc(F)cc2F)cc1 (configuration not stated) | – | – | – | – | – | – | 1 (≈ 2.4 nM) | 1 (≈ 2.4 nM) | 1 (≈ 2.4 nM) | 1 (≈ 2.4 nM) | 1 (≈ 2.4 nM)
7 | CCCCCc1ccc(C(=O)OC2CCN(CC(O)(Cn3cncn3)c3ccc(F)cc3F)CC2)cc1 (configuration not stated) | 3.9 to 62.5 (≈ 7.61 to 122 nM) | 3.9 to 62.5 (≈ 7.61 to 122 nM) | 3.9 to 62.5 (≈ 7.61 to 122 nM) | 3.9 to 62.5 (≈ 7.61 to 122 nM) | 3.9 to 62.5 (≈ 7.61 to 122 nM) | 3.9 to 62.5 (≈ 7.61 to 122 nM) | – | – | – | – | –
8 | Cc1cccc(OCCCN(C)CC(O)(Cn2cncn2)c2ccc(F)cc2F)c1 (configuration not stated) | – | – | – | – | – | – | 1 (≈ 2.4 nM) | 1 (≈ 2.4 nM) | 1 (≈ 2.4 nM) | 1 (≈ 2.4 nM) | 1 (≈ 2.4 nM)
9 | O=C(OC1CCN(CC(O)(Cn2cncn2)c2ccc(F)cc2F)CC1)c1ccccc1I (configuration not stated) | 3.9 to 62.5 (≈ 6.86 to 110 nM) | 3.9 to 62.5 (≈ 6.86 to 110 nM) | 3.9 to 62.5 (≈ 6.86 to 110 nM) | 3.9 to 62.5 (≈ 6.86 to 110 nM) | 3.9 to 62.5 (≈ 6.86 to 110 nM) | 3.9 to 62.5 (≈ 6.86 to 110 nM) | – | – | – | – | –
10 | CCCCc1ccc(C(=O)OC2CCN(CC(O)(Cn3cncn3)c3ccc(F)cc3F)CC2)cc1 (configuration not stated) | 3.9 to 62.5 (≈ 7.82 to 125 nM) | 3.9 to 62.5 (≈ 7.82 to 125 nM) | 3.9 to 62.5 (≈ 7.82 to 125 nM) | 3.9 to 62.5 (≈ 7.82 to 125 nM) | 3.9 to 62.5 (≈ 7.82 to 125 nM) | 3.9 to 62.5 (≈ 7.82 to 125 nM) | – | – | – | – | –
11 | CN(CCCOc1cccc([N+](=O)[O-])c1)CC(O)(Cn1cncn1)c1ccc(F)cc1F (configuration not stated) | – | – | – | – | – | – | 1 to 16 (≈ 2.23 to 35.8 nM) | 1 to 16 (≈ 2.23 to 35.8 nM) | 1 to 16 (≈ 2.23 to 35.8 nM) | 1 to 16 (≈ 2.23 to 35.8 nM) | 1 to 16 (≈ 2.23 to 35.8 nM)
12 | CN(CCCOc1ccc(Cl)cc1)CC(O)(Cn1cncn1)c1ccc(F)cc1F (configuration not stated) | – | – | – | – | – | – | 1 (≈ 2.29 nM) | 1 (≈ 2.29 nM) | 1 (≈ 2.29 nM) | 1 (≈ 2.29 nM) | 1 (≈ 2.29 nM)

Other lines, results leading:

Row | MIC80 (Candida albicans) [ng/mL] | MIC80 (Candida tropicalis) [ng/mL] | MIC80 (Cryptococcus neoformans) [ng/mL] | MIC80 (Trichophyton rubrum) [ng/mL] | MIC80 (Candida parapsilosis) [ng/mL] | MIC80 (Fonsecaea compacta) [ng/mL] | MIC (Candida albicans) [ng/mL] | MIC (Candida tropicalis) [ng/mL] | MIC (Cryptococcus neoformans) [ng/mL] | MIC (Trichophyton rubrum) [ng/mL] | MIC (Nannizzia gypsea) [ng/mL] | SMILES
13 | 3.9 to 62.5 (≈ 7.63 to 122 nM) | 3.9 to 62.5 (≈ 7.63 to 122 nM) | 3.9 to 62.5 (≈ 7.63 to 122 nM) | 3.9 to 62.5 (≈ 7.63 to 122 nM) | 3.9 to 62.5 (≈ 7.63 to 122 nM) | 3.9 to 62.5 (≈ 7.63 to 122 nM) | – | – | – | – | – | O=C(OC1CCN(CC(O)(Cn2cncn2)c2ccc(F)cc2F)CC1)c1ccc(Cl)cc1Cl (configuration not stated)
14 | 3.9 to 62.5 (≈ 7.76 to 124 nM) | 3.9 to 62.5 (≈ 7.76 to 124 nM) | 3.9 to 62.5 (≈ 7.76 to 124 nM) | 3.9 to 62.5 (≈ 7.76 to 124 nM) | 3.9 to 62.5 (≈ 7.76 to 124 nM) | 3.9 to 62.5 (≈ 7.76 to 124 nM) | – | – | – | – | – | COc1ccc(C(=O)OC2CCN(CC(O)(Cn3cncn3)c3ccc(F)cc3F)CC2)cc1OC (configuration not stated)
15 | 3.9 to 62.5 (≈ 8.05 to 129 nM) | 3.9 to 62.5 (≈ 8.05 to 129 nM) | 3.9 to 62.5 (≈ 8.05 to 129 nM) | 3.9 to 62.5 (≈ 8.05 to 129 nM) | 3.9 to 62.5 (≈ 8.05 to 129 nM) | 3.9 to 62.5 (≈ 8.05 to 129 nM) | – | – | – | – | – | CCCc1ccc(C(=O)OC2CCN(CC(O)(Cn3cncn3)c3ccc(F)cc3F)CC2)cc1 (configuration not stated)
16 | 3.9 to 62.5 (≈ 8.54 to 137 nM) | 3.9 to 62.5 (≈ 8.54 to 137 nM) | 3.9 to 62.5 (≈ 8.54 to 137 nM) | 3.9 to 62.5 (≈ 8.54 to 137 nM) | 3.9 to 62.5 (≈ 8.54 to 137 nM) | 3.9 to 62.5 (≈ 8.54 to 137 nM) | – | – | – | – | – | Cc1cccc(C(=O)OC2CCN(CC(O)(Cn3cncn3)c3ccc(F)cc3F)CC2)c1 (configuration not stated)
17 | 3.9 to 62.5 (≈ 8.25 to 132 nM) | 3.9 to 62.5 (≈ 8.25 to 132 nM) | 3.9 to 62.5 (≈ 8.25 to 132 nM) | 3.9 to 62.5 (≈ 8.25 to 132 nM) | 3.9 to 62.5 (≈ 8.25 to 132 nM) | 3.9 to 62.5 (≈ 8.25 to 132 nM) | – | – | – | – | – | COc1cccc(C(=O)OC2CCN(CC(O)(Cn3cncn3)c3ccc(F)cc3F)CC2)c1 (configuration not stated)
18 | 3.9 to 62.5 (≈ 7.64 to 122 nM) | 3.9 to 62.5 (≈ 7.64 to 122 nM) | 3.9 to 62.5 (≈ 7.64 to 122 nM) | 3.9 to 62.5 (≈ 7.64 to 122 nM) | 3.9 to 62.5 (≈ 7.64 to 122 nM) | 3.9 to 62.5 (≈ 7.64 to 122 nM) | – | – | – | – | – | O=C(OC1CCN(CC(O)(Cn2cncn2)c2ccc(F)cc2F)CC1)c1cccc(C(F)(F)F)c1 (configuration not stated)
19 | 3.9 to 62.5 (≈ 8.81 to 141 nM) | 3.9 to 62.5 (≈ 8.81 to 141 nM) | 3.9 to 62.5 (≈ 8.81 to 141 nM) | 3.9 to 62.5 (≈ 8.81 to 141 nM) | 3.9 to 62.5 (≈ 8.81 to 141 nM) | 3.9 to 62.5 (≈ 8.81 to 141 nM) | – | – | – | – | – | O=C(OC1CCN(CC(O)(Cn2cncn2)c2ccc(F)cc2F)CC1)c1ccccc1 (configuration not stated)
20 | 3.9 to 62.5 (≈ 8.29 to 133 nM) | 3.9 to 62.5 (≈ 8.29 to 133 nM) | 3.9 to 62.5 (≈ 8.29 to 133 nM) | 3.9 to 62.5 (≈ 8.29 to 133 nM) | 3.9 to 62.5 (≈ 8.29 to 133 nM) | 3.9 to 62.5 (≈ 8.29 to 133 nM) | – | – | – | – | – | Cc1ccc(C(=O)OC2CCN(CC(O)(Cn3cncn3)c3ccc(F)cc3F)CC2)c(C)c1 (configuration not stated)
21 | 3.9 to 62.5 (≈ 8.18 to 131 nM) | 3.9 to 62.5 (≈ 8.18 to 131 nM) | 3.9 to 62.5 (≈ 8.18 to 131 nM) | 3.9 to 62.5 (≈ 8.18 to 131 nM) | 3.9 to 62.5 (≈ 8.18 to 131 nM) | 3.9 to 62.5 (≈ 8.18 to 131 nM) | – | – | – | – | – | O=C(OC1CCN(CC(O)(Cn2cncn2)c2ccc(F)cc2F)CC1)c1cccc(Cl)c1 (configuration not stated)
22 | 3.9 to 62.5 (≈ 8.25 to 132 nM) | 3.9 to 62.5 (≈ 8.25 to 132 nM) | 3.9 to 62.5 (≈ 8.25 to 132 nM) | 3.9 to 62.5 (≈ 8.25 to 132 nM) | 3.9 to 62.5 (≈ 8.25 to 132 nM) | 3.9 to 62.5 (≈ 8.25 to 132 nM) | – | – | – | – | – | COc1ccccc1C(=O)OC1CCN(CC(O)(Cn2cncn2)c2ccc(F)cc2F)CC1 (configuration not stated)
23 | 3.9 to 62.5 (≈ 8.18 to 131 nM) | 3.9 to 62.5 (≈ 8.18 to 131 nM) | 3.9 to 62.5 (≈ 8.18 to 131 nM) | 3.9 to 62.5 (≈ 8.18 to 131 nM) | 3.9 to 62.5 (≈ 8.18 to 131 nM) | 3.9 to 62.5 (≈ 8.18 to 131 nM) | – | – | – | – | – | O=C(OC1CCN(CC(O)(Cn2cncn2)c2ccc(F)cc2F)CC1)c1ccc(Cl)cc1 (configuration not stated)
